Test results as given in patent publication US20240317732A1, “A NEW MOLECULAR SCAFFOLD FOR TARGETING HRPN13” (THE UNITED STATES OF AMERICA AS REPRESENTED BY THE …, priority 2021, published 2024).
“Also recorded” adds a separate entry of the source.

Assays:
[1] = tested on: MM.1S cells; test: MTT cell viability assay in MM.1S; type: cell-based; details: read-out: XL5-VHL-2 Sensitivity (IC50, μM) Cell viability assay
Experimental: The mass spectra (upper panel) were deconvoluted from the UV peak (lower panel) indicated with a black arrow. […] Viability is calculated as (λ570)sample/(λ570)control×100(%). […] Immunoprobing for cleaved caspase-9 and hRpn13 was done separately with re-probing for β-actin. […] A dashed line indicates the value […].

[2] = tested on: RPMI 8226 cells; test: MTT cell metabolism / cell viability assay in RPMI 8226; type: cell-based
Experimental: (§1) Since previous hRpn13-targeting molecules induce apoptosis in multiple myeloma and colon cancer cells we tested whether XL5 restricts the RPMI 8226 multiple myeloma and HCT116 colon cancer cell lines by measuring metabolism with an MTT (3-(4,5-dimethylthiazol-2-yl)-2,5-diphenyltetrazolium bromide) assay. Experiments were also conducted in parallel with a HCT116 colon cancer cell line in which the exon encoding hRpn13 C88 is deleted, named trRpn13; this cell line expresses a truncated hRpn13 protein with a defective Pru and inability to bind the proteasome28. RPMI 8226 and WT (wild-type) or trRpn13 HCT116 cells seeded at 8,000 and 4,000 cells per well were treated with varying concentrations of XL5 extending to 40 μM and compared to cells incubated with equivalent amounts of DMSO vehicle control.
(§2) HCT116 WT or trRpn13 cells were seeded at 4,000 cells/well whereas RPMI 8226 cells were seeded at 8,000 cells/well with RPMI 1640 medium (no phenol red, Thermo Fisher Scientific 11835030) containing 2% fetal bovine serum in 96-well plates. Cells were treated with 0.4% DMSO (as a control) and this concentration was maintained with XL5, XL5-PROTACs XL5-VHL, XL5-VHL-2, XL5-CRBN, or XL5-IAP, and E3 ligands VHL-Ac, thalidomide (Selleckchem, catalog NO. S1193), or IAP-Bz at 10 μM, 20 μM, 30 μM or 40 μM concentration. After 48 hours, 0.35 mg/mL MTT was added for 4 hours of incubation. Stop solution (40% DMF, 10% SDS (W/V), 25 mM HCl, 2.5% acetic acid in H2O) was added to the cells and incubated overnight. Absorbance at 570 nm was measured by using CLARIOstar (BMG LABTECH).

[3] = tested on: RPMI 8226 WT cells; test: Apoptosis by cleaved caspase-9 immunoblot in RPMI 8226 WT; type: cell-based; details: 40 μM PROTAC or 20 μM XL5-S2
Experimental: RPMI 8226 WT or trRpn13-MM2 (MM2) cells were treated with 40 μM XL5-VHL-2, 40 μM XL5-VHL-3 or DMSO (vehicle control) and the whole cell extract immunoprobed for hRpn13 or cleaved caspase-9 with β-actin as a loading control. A black asterisk indicates cleaved caspase-9 in the 2-min immunoblot for hRpn13, as hRpn13 was probed following cleaved caspase-9 and without stripping the membrane.
RPMI 8226 WT or trRpn13-MM2 cells were treated with 20 μM XL5-S2 or DMSO (vehicle control) and the whole cell extract immunoprobed for hRpn13 or cleaved caspase-9, with β-actin as a loading control. A black asterisk indicates cleaved caspase-9 in the 5-min immunoblot for hRpn13, as hRpn13 was probed following cleaved caspase-9 and without stripping the membrane.
HCT116 WT, HCT116 trRpn13, RPMI 8226 or 293T cells were collected and washed with PBS followed by lysing in 1% Triton-TBS lysis buffer (50 mM Tris-HCl, pH 7.5, 150 mM NaCl, 1 mM PMSF) supplemented with protease inhibitor cocktail (Roche). Total protein concentration was determined by bicinchoninic acid (Pierce). Protein lysates were prepared in 1χ LDS (ThermoFisher, NP0007) buffer with 100 mM DTT and heating at 70° C. for 10 min, loaded onto 4-12% Bis-Tris polyacrylamide gels (Life Technologies), subjected to SDS-PAGE and transferred to Invitrolon polyvinylidene difluoride membranes (Life Technologies). […]

[4] = tested on: hRpn13 / hRpn13-Pru; test: Immunoblot of hRpn13 species in RPMI 8226 cell lysates; type: cell-based, human; details: RPMI 8226, 40 μM, 24 hours
Experimental: HCT116 WT, HCT116 trRpn13, RPMI 8226 or 293T cells were collected and washed with PBS followed by lysing in 1% Triton-TBS lysis buffer (50 mM Tris-HCl, pH 7.5, 150 mM NaCl, 1 mM PMSF) supplemented with protease inhibitor cocktail (Roche). Total protein concentration was determined by bicinchoninic acid (Pierce). Protein lysates were prepared in 1χ LDS (ThermoFisher, NP0007) buffer with 100 mM DTT and heating at 70° C. for 10 min, loaded onto 4-12% Bis-Tris polyacrylamide gels (Life Technologies), subjected to SDS-PAGE and transferred to Invitrolon polyvinylidene difluoride membranes (Life Technologies). The membranes were blocked in Tris-buffered saline with 0.1% Tween-20 (TBST) supplemented with 5% skim milk, incubated with primary antibody, washed in TBST, incubated with secondary antibody and washed extensively in TBST. Pierce™ ECL Western Blotting Substrate (32106; Thermo Fisher Scientific) or Amersham™ ECL™ Primer Western Blotting Detection Reagent (cytiva) was used for antibody signal detection.
To test whether the XL5-PROTACs cause ubiquitination and degradation of hRpn13, lysates from RPMI 8226 (FIG. 5C) cells treated with 40 μM XL5 orXL5-PROTAC compared to DMSO vehicle control were immunoprobed for hRpn13 and β-actin (loading control).

[5] = tested on: RPMI 8226 trRpn13-MM2 cells; test: MTT cell viability assay in RPMI 8226 trRpn13-MM2; type: cell-based; details: RPMI 8226 trRpn13-MM2, 48 hours, compared to WT
Experimental: FIGS. 11A-11C show hRpn13-Pru PROTACs with different linkers restrict cell viability in an hRpn13 Pru-dependent manner. RPMI 8226 WT (darker shades) or trRpn13-MM2 (lighter shades) cells were treated with the indicated concentration of XL5-VHL-2 (FIG. 11A), XL5-VHL-3 (FIG. 11A), XL5-VHL-4 (FIG. 11B) or XL5-VHL-5 (FIG. 11C) for 48 hours and cell metabolism measured by an MTT assay; data represent mean±SD of n=6 biological replicates. Viability is calculated as (λ570)sample/(λ570)control×100(%).

[6] = tested on: HCT116 WT cells; test: MTT cell metabolism / cell viability assay in HCT116 WT; type: cell-based; details: read-out: XL5-VHL-2 Sensitivity (IC50, μM) Cell viability assay
Experimental: as §1
as §2, with “After 48 hours, 0.35 mg/mL MTT was added for 4 hours of incubation. Stop solution (40% DMF, 10% SDS (W/V), 25 mM HCl, 2.5% acetic acid in H2O) was added to the cells and incubated overnight.” left out

## Cc1ncsc1-c1ccc([C@H](C)NC(=O)[C@@H]2C[C@@H](O)CN2C(=O)[C@@H](NC(=O)CCCCc2cn(-c3ccc(C(=O)Nc4cccc(/C=C(\C#N)C(=O)Nc5ccccc5C(=O)O)c4)cc3)nn2)C(C)(C)C)cc1 [XL5-VHL-2]
[1]
  IC50: 5.9 ± 0.7 µM
[2]; RPMI 8226, 48 hours, up to 40 μM
  metabolic activity / cell viability (MTT): hook effect and lost
[2]; RPMI 8226, read-out: XL5-VHL-2 Sensitivity (IC50, μM) Cell viability assay
  IC50: 4.2 ± 1 µM
[3]
  apoptosis induction (cleaved caspase-9): poorer induction of cleaved caspase-9
[4]
  lower molecular weight hRpn13 species (hRpn13-Pru) level: less hRpn13-Pru loss; also recorded: reduced in abundance
[4]; longer exposure
  higher molecular weight hRpn13 species characteristic of ubiquitination: increase in higher molecular weight hRpn13 species
[5]
  cell viability (MTT): loss of activity
[6]
  IC50: 23.6 ± 4.7 µM
